Series [1] relates to P. viticola cellulose synthase 2 (PvCesA2), cytoplasmic portion aa 331 to 790. The class given is binding, Plasmopara viticola. The settings on record: growth on selective media lacking adenine or histidine, 10 mM 3-AT; sequence found at least three times among 30 colonies.
Series [2] relates to Plasmopara viticola. The class given is cell-based. Conditions: 5 and 7 dpi; for effect on P. viticola disease severity on leaf disks: 200 μM peptide co-inoculated with sporangia, Pinot noir leaf disks, ten replicates from two experiments.
Series [3] relates to Plasmopara viticola. The class given is cell-based.
In series [4] the test system is Plasmopara viticola. The class given is in vivo. The settings on record: for disease severity of plants: average ± standard error.
A further series concerns Escherichia coli. Type of series: cell-based. The settings on record: 100 μM and 200 μM in LB medium, 37 °C, OD600 every hour for 5 h, three biological replicates.
Series [5] relates to Agrobacterium tumefaciens. The class given is cell-based. Conditions: 100 μM and 200 μM in LB medium, 28 °C, OD600 every hour for 5 h, three biological replicates.
Series [6] relates to Bacillus amyloliquefaciens (subsp. plantarum) strain D 747. The class given is cell-based. The settings on record: 100 μM and 200 μM in LB medium, 37 °C, OD600 every hour for 5 h, three biological replicates.
The subject of another series is Erysiphe necator. The class given is cell-based. The settings on record: 200 μM and 400 μM, young grapevine leaves, 14 dpi.
The subject of the next series is Phytophthora infestans. Type of series: cell-based. The settings on record: 100 μM and 200 μM in pea agar medium, 20 °C, radial growth at 4, 5 and 7 dpi.
Series [7] relates to Plasmopara viticola zoospores. The class given is cell-based. The settings on record: 200 μM, leaf disks, 6 h in the dark at 22 °C, SEM.
The test system of a further series is HKC8 cells. Conditions: 400 μM, HKC8 at 1 K, 3 K and 6 K cells/100 μl, four biological replicates.
Series [8] has as its system Pinot noir leaves, photosystem II. The settings on record: grapevine leaves, 7 days after treatment, average ± SD of 3 measurements.

Where two headings read alike, the source gives them in different places.

“H-MLLHSELC-OH [NoPv3, 8 a.a. peptide aptamer identified by yeast two-hybrid assay using PvCesA2 as bait]”: in series [1], the “peptide aptamers interacting with PvCesA2 (yeast two-hybrid library screening)” value (from here on “peptide aptamers interacting”) is listed as “interacting with PvCesA2”. Further, the “effect on P. viticola disease severity on leaf disks” value in the series with Plasmopara viticola [2] is given as “no effect”.

In the case of “H-RLTAQCRL-OH [NoPv1, peptide aptamer of 8 L-amino acid residues, RLTAQCRL, isolated with PvCesA2 as bait]”, the “peptide aptamers interacting” value in series [1] was “interacting with PvCesA2”. The “effect on P. viticola disease severity on leaf disks” value with Plasmopara viticola [2] is given as “completely inhibit”. In addition, the “anti-oomycete activity on leaf disks” value in the series with Plasmopara viticola [2] (co-inoculation, 20 μM) is “no anti-oomycete activity”. Besides, the “P. viticola disease severity on leaf disks” value with Plasmopara viticola [2] (co-inoculation, 50 μM) is “almost half of the control sample”. In addition, the “percentage of leaf disk area covered by P. viticola sporulation” value in the series with Plasmopara viticola [2] (co-inoculation, concentrations equal or higher than 100 μM) is given as “below 10%”. Also, the “treatment efficacy, preventive application” value in the series with Plasmopara viticola [3] (400 μM applied 7 days before inoculation (-7 d), leaf disks) is “effective in suppressing P. viticola infection”. Besides, the “treatment efficacy, post-inoculation (curative) application” value in the series on Plasmopara viticola [3] (400 μM applied +1 h to +2 d after P. viticola inoculation, leaf disks) was “efficacy decreased very rapidly”. The Disease severity in the series with Plasmopara viticola [3] (400 μM sprayed +1 h after inoculation, leaf disks, 7 dpi, mean of ten replicates) was 18.00%; with Plasmopara viticola [3] (400 μM sprayed +1 d after inoculation, leaf disks, 7 dpi, mean of ten replicates), 23.76%; in the series on Plasmopara viticola [3] (400 μM sprayed +2 d after inoculation, leaf disks, 7 dpi, mean of ten replicates), 36.00%; in the series on Plasmopara viticola [3] (400 μM sprayed -2 h before inoculation, leaf disks, 7 dpi, mean of ten replicates), 1.58%; in the series with Plasmopara viticola [3] (400 μM sprayed -6 h before inoculation, leaf disks, 7 dpi, mean of ten replicates), 5.62%; in the series on Plasmopara viticola [3] (400 μM sprayed -1 d before inoculation, leaf disks, 7 dpi, mean of ten replicates), 6.17%. Further, the Disease severity worked out at 3.96% with Plasmopara viticola [3] (400 μM sprayed -2 d before inoculation, leaf disks, 7 dpi, mean of ten replicates); 2.23% in the series with Plasmopara viticola [3] (400 μM sprayed -5 d before inoculation, leaf disks, 7 dpi, mean of ten replicates); 9.72% in the series with Plasmopara viticola [3] (400 μM sprayed -7 d before P. viticola inoculation, leaf disks, 7 dpi, mean of ten replicates from two experiments); 2.88% in the series with Plasmopara viticola [3] (400 μM, co-inoculation 0 h, leaf disks, 7 dpi, mean of ten replicates); 15.89% in the series on Plasmopara viticola [4] (1 mM sprayed -7 d before inoculation, greenhouse plants, 7 dpi, mean of ten replicates from two experiments). The “P. viticola severity on leaf disks after nebulization” value in the series on Plasmopara viticola [3] (400 μM, Potter Precision Spray Tower, 7 dpi) is “reduction of P. viticola severity”. The “efficacy on leaf disks after nebulization compared with copper fungicide” value with Plasmopara viticola [3] (800 μM vs Kocide 2000 1.42 g l^-1, Potter Precision Spray Tower) is “as effective as the copper-based fungicide Kocide 2000”. Also, the “lowest concentration that maximises the efficacy against P. viticola” value in the series with Plasmopara viticola [3] (nebulization on leaf disks, Potter Precision Spray Tower) turned out to be 400 µM. Further, the “disease severity of plants” value with Plasmopara viticola [4] (400 μM sprayed immediately before P. viticola inoculation, greenhouse Pinot noir plants) came out at 27.3 ± 5.2%; with Plasmopara viticola [4] (800 μM sprayed immediately before P. viticola inoculation, greenhouse plants), 26.2 ± 4.2%; in the series with Plasmopara viticola [4] (1 mM sprayed immediately before P. viticola inoculation, greenhouse plants) it was 20.8 ± 2.4%; in the series on Plasmopara viticola [4] (2 mM sprayed immediately before P. viticola inoculation, greenhouse plants) it was 21.1 ± 4.2. In the series with Plasmopara viticola [4] (1 mM applied at -7 d, -2 d and 0 h, greenhouse plants, 7 dpi), the “NoPv1 efficacy compared to control plants” value is recorded as “higher than 60%”. Besides, the “lowest concentration showing a P. viticola severity comparable to the copper treatment” value in the series on Plasmopara viticola [4] (greenhouse plants, sprayed immediately before inoculation) is on record as 1 mM. In addition, the “growth inhibition of E. coli” value in the series on Escherichia coli was “not able to inhibit the growth”. For the same substance, in series [5], the “growth inhibition of A. tumefaciens” value was “not able to inhibit the growth”. In addition, in series [6], the “growth inhibition of B. amyloliquefaciens” value is reported as “not able to inhibit the growth”. The “effect on E. necator disease severity on leaves” value in the series on Erysiphe necator is listed as “not able to reduce the disease severity on leaves”. Moreover, the “inhibition of P. infestans growth in vitro” value in the series on Phytophthora infestans is “able to inhibit P. infestans growth in vitro”. The “zoospores in which a germ tube primordium could be detected” value in series [7] (5 zoospores out of 160) turned out to be 3.12%. Besides, the “P. viticola germ tube formation” value in [7] (n = 160) is recorded as “unable to develop any germ tube”. Also, the “cell viability (MTT, absorbance at 570 nm) vs control” value in the series with HKC8 cells (DMEM-F12, 24 h) was “No significant differences between control and treated samples”; in the series with HKC8 cells (DMEM-F12, 48 h), “cytotoxic effects could only be observed at 1 K cell density”. For the same substance, the results for the “FV/FM, maximum quantum yield of photosystem II” value in series [8] (400 µM (P1)) and in series [8] (1 mM (P2)) were 0.73 ± 0.01 and 0.74 ± 0.01, respectively. Also, the “Y(II), effective quantum yield of photosystem II” value is listed as 0.33 ± 0.02 in series [8] (400 µM (P1)) and 0.33 ± 0.01 in series [8] (1 mM (P2)).

Consider “H-LFPFVSSM-OH [NoPv2, 8 a.a. peptide aptamer identified by yeast two-hybrid assay using PvCesA2 as bait]”, for which the “peptide aptamers interacting” value in series [1] is on record as “interacting with PvCesA2”. Also, the “effect on P. viticola disease severity on leaf disks” value in the series on Plasmopara viticola [2] was “intermediate”.
